Consider three substances from publication PMC8273887 (Journal of Medicinal Chemistry, 2021).

Series [1] can be described thus: Stability in simulated gastric fluid (SGF). It counts as in vitro ADME, porcine. As to conditions: SGF with pepsin, pH 1.3, 37 °C, 24 h; RP-HPLC and MS. The procedure: (§1) We exposed TFF3(C^57Acm) and TFF3 homodimer to simulated gastric fluid (SGF, containing pepsin, pH 1.3) and simulated intestinal fluid (SIF, containing pancreatic enzymes, pH 6.8), and monitored the mixture over 24 h by analytical RP-HPLC and MS. The N- and C-termini of TFF3 and its homodimer were readily truncated in both SGF and SIF (Figure 4A,B). In SGF, TFF3 was cleaved at Leu^6/Ser^7 followed by cleavage at Glu^54/Ala^55 (t1/2 < 5 min). In SIF, TFF3 was cleaved first at Thr^58/Phe^59 followed by cleavage at Leu^6/Ser^7, Glu^56/Cys^57, and Ala^55/Glu^56 (t1/2 < 5 min). TFF3 homodimer, in both SGF (t1/2 ∼ 40 min) and SIF (t1/2 < 5 min), was first broken down to monomeric TFF3 through simultaneous cleavage at Leu^6 and Glu^54 or Ala^55, eventually leading to the same metabolites as TFF3 (Figure 4B).
(§2) Simulated gastric fluid (SGF) was prepared by dissolving 20 mg of NaCl and 8 mg of pepsin in 70 μL of concentrated HCl (32%), and the volume was diluted to 10 mL with Milli-Q water (pH 1.3).[76],[77] Simulated intestinal fluid (SIF) was prepared by dissolving 68 mg of KH2PO4 in 500 μL of Milli-Q water followed by the addition of 800 μL of 0.2 M NaOH and 100 mg of porcine pancreatin, and the volume was adjusted to 10 mL with Milli-Q water (pH 6.8).[76],[77] Peptide stock solution (1 mM; 15 μL) was added to SGF (285 μL) or SIF (285 μL) and incubated at 37 °C. Samples (30 μL) from SGF and SIF were taken at 0, 5, 15, and 30 min and 1, 2, 4, 8, and 24 h timepoints and subsequently quenched with 30 μL of 0.2 M Na2CO3 (SGF) or 30 μL of 5% aqueous TFA (SIF). The samples were analyzed by analytical RP-HPLC (30 μL) and/or LC-MS (20 μL). The amount of peptide remaining was determined by measuring the peak area and expressing it as a % of the peak area at time 0. Peptide half-life (t1/2) was determined from the peptide degradation profiles using an exponential one-phase decay fit in Prism (version 7, GraphPad, La Jolla). LC-MS analysis was performed in a Q-Star Pulsar mass spectrometer (SCIEX, Ontario, Canada), and the raw data spectra were processed using the peptide reconstruction tool in the BioAnalyst software to identify the mass of the metabolites. The stability of the disulfide bonds was assessed through incubation of the peptides (10 μM) with 10 equiv of reduced glutathione (GSH; 100 μM) in sodium phosphate (50 mM) buffer at pH 7.2. Samples were taken at timepoints 0, 4, 8, and 24 h, quenched by adding 10% TFA, and analyzed by analytical RP-HPLC using an analytical C3 column (Agilent Zorbax SB-C3, 5 μm, 2.1 mm × 250 mm, 300 Å).

For another series, the system named is trypsin. As to conditions: incubated with trypsin; fragments identified. The text has this: We then synthesized the trefoil domain (TFF3_10-50, single-chain assembly via Fmoc-SPPS) to investigate its gut stability. We acetylated the N-terminus (Gln^10) of the trefoil domain to prevent the formation of pyroglutamic acid.
Series [2] is described as follows: Stability in simulated intestinal fluid (SIF). It counts as in vitro ADME. As to conditions: pig, simulated intestinal fluid (SIF) with porcine pancreatin, pH 6.8, 15 μL of 1 mM peptide stock in 285 μL SIF, 37 °C, samples 0 min-24 h quenched with 5% aqueous TFA, RP-HPLC/LC-MS peak area as % of time 0, exponential one-phase decay fit, read-out: t1/2 in SIF. The procedure:
as §1, §2

Another series can be described thus: human saliva. The following applies: cited from earlier work.
The subject of another series is porcine pancreatin. As to the kind of experiment: simulated intestinal fluid (SIF, containing pancreatic enzymes, pH 6.8). The following applies: 37 °C, up to 24 h.
A further series relates to pepsin. In words: simulated gastric fluid (SGF, containing pepsin, pH 1.3). The following applies: porcine, 37 °C, up to 24 h.
A further series concerns the target T1, CXCR4 (Homo sapiens, UniProt P61073).
T1 construct: expressed in transfected cells; host or cells: COS-7 (African green monkey), transient co-transfection with GαΔ6qi4myr
In words: Inositol 1 phosphate (IP1) accumulation assay (HTRF) in COS-7 cells transfected with CXCR4. The following applies: 5 min preincubation with peptide (1 or 10 μM final), then CXCL12 10^-12 to 10^-5 M; COS-7/CXCR4; IP1 HTRF. In kind it is cell-based. The text has this:
CXCR4 is a member of the G protein-coupled receptor (GPCR) family[58] and proposed as a target receptor for TFF3 to mediate wound healing.[30],[39] We therefore pharmacologically characterized TFF3(C^57Acm) and TFF3 homodimer at CXCR4. We used a chimeric Gαiq protein to switch the pathway to the Gαq signaling, which leads to the activation of the phospholipase and allows measurement of CXCR4 activation through the production of inositol 1 phosphate (IP1).[61]−[63] We measured IP1 accumulation upon stimulation with TFF3(C^57Acm) and TFF3 homodimer in fibroblast-like COS-7 cells transiently transfected with CXCR4.[58] This is a competitive immunoassay, based on the HTRF technology, where native IP1 produced by cells compete with labeled IP1 (acceptor) for binding to anti-IP1-cryptate (donor). The specific signal (i.e., Förster resonance energy transfer, FRET) is inversely proportional to the concentration of IP1 in the sample. The calculation of the fluorescence ratio eliminates possible medium interferences.[64]
COS-7 cells (fibroblast-like cells from African green monkey) were transiently co-transfected with the CXCR4 C-terminally fused to eYFP in pVitro2 vector and the untagged chimeric G protein GαΔ6qi4myr in pcDNA3.1 plasmid using Metafectene Pro according to manufacturer’s protocol. The cells were cultured in DMEM with higher glucose and supplemented with 10% FCS without any antibiotics at 37 °C and 5% CO2 in 95% humidity. Cisbio IP-One Gq assay kit was used according to previous description with minor modifications to measure activity.[80] Briefly, a standard curve was prepared in HBSS (Hanks’ balanced salt solution) with 20 mM LiCl to determine the linear range of the assay and 10 000 cells/well were cultured overnight in a 384-well flat white plate (Greiner Bio-one GmbH, Frickenhausen, Germany). TFF3 and its homodimer as well as CXCL12 were diluted in HBSS containing 20 mM LiCl. Stimulation was carried out for 1 h in triplicate at 37 °C. Subsequently, 3 μL of IP1-d2 and 3 μL of Ab-cryptate in lysis buffer were added to the wells and incubated on a tumbler for 60 min at 25 °C. Fluorescence was then measured at 620 and 665 nm and the HTRF (homogeneous time-resolved fluorescence) ratio (665/620 nm) was calculated. Data analysis was performed with Prism (version 7, GraphPad, La Jolla). Tested compounds were normalized to CXCL12 wild type, with the highest HTRF ratio set to 0% and the lowest HTRF ratio set to 100% response. […] The final concentration range of 10^–12 to 10^–5 M to CXCL12 and 1 or 10 μM to TFF3(C^57Acm) and TFF3 homodimer was achieved by adding the compounds from a threefold concentrated stock solution.

The nature of series [3]: Stability of disulfide bonds with reduced glutathione (GSH). It counts as physicochemical. As to conditions: peptide 10 μM, 10 equiv reduced glutathione (100 μM), 50 mM sodium phosphate buffer pH 7.2; timepoints 0, 4, 8, 24 h; analytical C3 RP-HPLC. From the text:
In certain physiological environments, disulfide bonds are prone to scrambling or reductive cleavage, thereby affecting peptide integrity.[67] Thus, we also evaluated the stability of the disulfide bonds of TFF3 in the presence of 10 equivalents of reduced glutathione (GSH) at pH 7 by time-course analytical RP-HPLC. […] While this was expected for the relatively buried disulfide bonds within the trefoil domain (TFF3_10-50), it highlights that also the disulfide bond outside of the trefoil domain is well protected.
Simulated gastric fluid (SGF) was prepared by dissolving 20 mg of NaCl and 8 mg of pepsin in 70 μL of concentrated HCl (32%), and the volume was diluted to 10 mL with Milli-Q water (pH 1.3).[76],[77] […] The samples were analyzed by analytical RP-HPLC (30 μL) and/or LC-MS (20 μL). The amount of peptide remaining was determined by measuring the peak area and expressing it as a % of the peak area at time 0. Peptide half-life (t1/2) was determined from the peptide degradation profiles using an exponential one-phase decay fit in Prism (version 7, GraphPad, La Jolla). […] The stability of the disulfide bonds was assessed through incubation of the peptides (10 μM) with 10 equiv of reduced glutathione (GSH; 100 μM) in sodium phosphate (50 mM) buffer at pH 7.2. […]

Entries after “also recorded” stand apart in the source; their conditions may differ. Bridge positions count the residues as written; N and C are the ends. Ends that are not written are not given here. A value given as a limit tells only on which side of the number the result lay.

T1 sequence (P61073 whole entry): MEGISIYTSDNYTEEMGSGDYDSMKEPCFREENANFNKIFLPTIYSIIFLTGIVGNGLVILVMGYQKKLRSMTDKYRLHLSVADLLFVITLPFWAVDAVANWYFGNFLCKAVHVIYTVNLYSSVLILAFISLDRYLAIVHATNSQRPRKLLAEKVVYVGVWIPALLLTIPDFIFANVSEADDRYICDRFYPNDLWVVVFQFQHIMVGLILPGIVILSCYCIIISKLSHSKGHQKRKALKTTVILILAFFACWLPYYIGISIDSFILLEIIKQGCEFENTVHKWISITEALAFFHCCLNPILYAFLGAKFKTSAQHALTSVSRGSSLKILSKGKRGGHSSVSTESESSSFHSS

For “Ac-QCAVPAKDRVDCGYPHVTPKECNNRGCCFDSRIPGVPWCFK-NH2 (disulfide 2-28, 12-27, 22-39) [TFF3_10-50]”, in series [1], the “stability in SGF over 24 h (in words)” value is on record as “stable”. Moreover, the “cleavage sites on incubation with trypsin” value in the series with trypsin was “cleavages at Lys^16, Arg^18, and Arg^41”. Also, the half-life at 50 μM in series [2] is below 30 min.

With “EEYVGLSANQCAVPAKDRVDCGYPHVTPKECNNRGCCFDSRIPGVPWCFKPLQEAECTF”, the cleaved bond entry in “human saliva” is given as “Thr58-Phe59”; with porcine pancreatin it was “Leu6-Ser7, first_seen”; with pepsin, “Leu6-Ser7, first_seen; also recorded: Glu54-Ala55, first_seen; also recorded: Ala55-Glu56, first_seen”. For the same substance, the fragment found result in the series on porcine pancreatin was “S^7ANQCAVPAKDRVDCGYPHVTPKECNNRGCCFDSRIPGVPWCFKPLQEAE^56”.

As to “TFF3: 59-residue trefoil factor 3 peptide, three intrachain disulfide bonds, free Cys^57; chemically synthesized by native chemical ligation (EEYVGLSANQCAVPAKDRVDCGYPHVTPKECNNRGCCFDSRIPGVPWCFKPLQEAECTF; disulfide 11-37, 21-36, 31-48)”, the “effect on the EC50 of CXCL12 at CXCR4 (antagonism)” value with CXCR4 was “not affected”. Moreover, in series [3], the “disulfide bond reduction or scrambling in presence of GSH” value is given as “No disulfide bond reduction or scrambling was observed”.
